Assay results published in PubChem BioAssay (NCI).
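Results reflect a 48-hour exposure of cells in 96-well plates to compound at five concentrations. Abbreviation: GI50, concentration required for 50% inhibition of growth. TGI: concentration producing complete growth inhibition.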

Experiments:
Experiment in all cases: DTP human tumour cell line panel, 48 h
CAKI-1 renal = test system: CAKI-1 renal
EKVX NSCLC = test system: EKVX NSCLC
NCI-H23 lung = test system: NCI-H23 lung
OVCAR-5 ovarian = test system: OVCAR-5 ovarian
SK-MEL-28 melanoma = test system: SK-MEL-28 melanoma
SK-MEL-5 melanoma = test system: SK-MEL-5 melanoma
SW-620 colon = test system: SW-620 colon
HL-60(TB) leukemia = test system: HL-60(TB) leukemia
IGROV1 ovarian = test system: IGROV1 ovarian
SR leukemia = test system: SR leukemia

CN(CCCNC(=O)CCOCCOCCOCCNC(=O)Cc1ccc2ccc3cccc4ccc1c2c34)CCCNc1cc(-c2ccc3ccccc3c2)nc2ccccc12
GI50 (CAKI-1 renal): 1.06 µM
TGI (CAKI-1 renal): 3.34 µM
GI50 (EKVX NSCLC): 0.48 µM
TGI (EKVX NSCLC): 0.959 µM
GI50 (NCI-H23 lung): 0.767 µM
TGI (NCI-H23 lung): 2.1 µM
GI50 (OVCAR-5 ovarian): 0.635 µM
TGI (OVCAR-5 ovarian): 1.18 µM
GI50 (SK-MEL-28 melanoma): 0.191 µM
TGI (SK-MEL-28 melanoma): 0.347 µM
GI50 (SK-MEL-5 melanoma): 0.541 µM
TGI (SK-MEL-5 melanoma): 1.01 µM
GI50 (SW-620 colon): 0.247 µM
TGI (SW-620 colon): 0.654 µM

COc1cc(-c2nn(-c3cccc(NC(=O)c4ccc(Cl)c(C(F)(F)F)c4)c3)cc2-c2ccncc2)ccc1Cl
GI50 (CAKI-1 renal): 2.34 µM
TGI (CAKI-1 renal): > 32.5 µM
GI50 (HL-60(TB) leukemia): 2.56 µM
TGI (HL-60(TB) leukemia): > 32.5 µM
GI50 (IGROV1 ovarian): 1.78 µM
TGI (IGROV1 ovarian): > 32.5 µM
GI50 (NCI-H23 lung): 3.14 µM
TGI (NCI-H23 lung): > 32.5 µM
GI50 (OVCAR-5 ovarian): > 28.4 µM
TGI (OVCAR-5 ovarian): > 32.5 µM
GI50 (SK-MEL-28 melanoma): 3.09 µM
TGI (SK-MEL-28 melanoma): > 32.5 µM
GI50 (SK-MEL-5 melanoma): 1.13 µM
TGI (SK-MEL-5 melanoma): 8.69 µM
GI50 (SR leukemia): 0.809 µM
TGI (SR leukemia): > 10.2 µM
GI50 (SW-620 colon): 2.87 µM
TGI (SW-620 colon): > 32.5 µM

CCOC(=O)C1(C)CCCCC(=O)N1 (configuration not stated)
TGI (CAKI-1 renal): > 100 µM
TGI (EKVX NSCLC): > 100 µM
TGI (HL-60(TB) leukemia): > 100 µM
TGI (IGROV1 ovarian): > 100 µM
TGI (NCI-H23 lung): > 100 µM
TGI (SK-MEL-28 melanoma): > 100 µM
TGI (SW-620 colon): > 100 µM

CC1(c2ccc(Cl)cc2)C2C(=O)NC(=O)C1C(=O)NC2=O (configuration not stated)
TGI (CAKI-1 renal): > 100 µM
TGI (EKVX NSCLC): > 100 µM
TGI (HL-60(TB) leukemia): > 100 µM
TGI (IGROV1 ovarian): > 100 µM
TGI (NCI-H23 lung): > 100 µM
TGI (OVCAR-5 ovarian): > 100 µM
TGI (SK-MEL-28 melanoma): > 100 µM
TGI (SK-MEL-5 melanoma): > 100 µM
TGI (SW-620 colon): > 100 µM

CC(=O)NC(CC(C)C)C(=O)NC(Cc1ccccc1)C(=S)N1CCCC1 (configuration not stated)
TGI (CAKI-1 renal): > 100 µM
TGI (EKVX NSCLC): > 100 µM
TGI (HL-60(TB) leukemia): > 100 µM
TGI (IGROV1 ovarian): > 100 µM
TGI (NCI-H23 lung): > 100 µM
TGI (OVCAR-5 ovarian): > 100 µM
TGI (SK-MEL-28 melanoma): > 100 µM
TGI (SK-MEL-5 melanoma): > 100 µM
TGI (SW-620 colon): > 100 µM

CCn1c(-c2nonc2N)nc2cncc(C(=O)N3CC[C@H](N)C3)c21
GI50 (CAKI-1 renal): 2.35 µM
TGI (CAKI-1 renal): > 25 µM
GI50 (HL-60(TB) leukemia): > 25 µM
TGI (HL-60(TB) leukemia): > 25 µM
GI50 (IGROV1 ovarian): > 25 µM
TGI (IGROV1 ovarian): > 25 µM
GI50 (NCI-H23 lung): > 25 µM
TGI (NCI-H23 lung): > 25 µM
GI50 (OVCAR-5 ovarian): > 25 µM
TGI (OVCAR-5 ovarian): > 25 µM
GI50 (SK-MEL-28 melanoma): > 25 µM
TGI (SK-MEL-28 melanoma): > 25 µM
GI50 (SK-MEL-5 melanoma): > 25 µM
TGI (SK-MEL-5 melanoma): > 25 µM
GI50 (SR leukemia): 2.01 µM
TGI (SR leukemia): > 25 µM
GI50 (SW-620 colon): > 25 µM
TGI (SW-620 colon): > 25 µM

CC1=C(C(=O)Nc2cc(F)c(F)cc2F)C(c2ccc([N+](=O)[O-])cc2)C(C(=O)Nc2cc(F)c(F)cc2F)=C(C)N1
TGI (CAKI-1 renal): > 100 µM
TGI (EKVX NSCLC): > 100 µM
TGI (HL-60(TB) leukemia): 35.7 µM
TGI (IGROV1 ovarian): > 100 µM
TGI (NCI-H23 lung): > 100 µM
TGI (OVCAR-5 ovarian): > 100 µM
TGI (SK-MEL-28 melanoma): > 100 µM
TGI (SK-MEL-5 melanoma): > 100 µM
TGI (SW-620 colon): > 100 µM

CC[C@H](C)[C@H](NC(=O)CN(C)C)C(=O)N(C)[C@H](C[C@@H](OC(C)=O)c1nc(C(=O)NC23CC(C(=O)OC)(C2)C3)cs1)C(C)C
GI50 (CAKI-1 renal): 12.3 µM
TGI (CAKI-1 renal): > 25 µM
GI50 (EKVX NSCLC): 1.53 µM
TGI (EKVX NSCLC): > 25 µM
GI50 (HL-60(TB) leukemia): 0.0455 µM
TGI (HL-60(TB) leukemia): 0.181 µM
GI50 (IGROV1 ovarian): 0.412 µM
TGI (IGROV1 ovarian): > 25 µM
GI50 (NCI-H23 lung): 1.22 µM
TGI (NCI-H23 lung): > 25 µM
GI50 (OVCAR-5 ovarian): > 6.63 µM
TGI (OVCAR-5 ovarian): > 25 µM
GI50 (SK-MEL-28 melanoma): 3.06 µM
TGI (SK-MEL-28 melanoma): > 25 µM
GI50 (SK-MEL-5 melanoma): 0.572 µM
TGI (SK-MEL-5 melanoma): 4 µM
GI50 (SW-620 colon): 0.163 µM
TGI (SW-620 colon): > 25 µM
